The text below walks through data of patent publication US20170291905A1, “ARGININE […] INHIBITORS AND USES THEREOF” (Epizyme, Inc., priority 2014, published 2017).

One may read the IC50 as the point on the concentration scale where inhibition reaches its midpoint. A high value points to weaker potency.

SMILES strings stand for the structures. Where a name gives a salt, the structure may show the parent alone.

In this experiment the target is full-length human PRMT6 (Flag- and His-tagged) (Homo sapiens, UniProt Q96LA8). The experiment in a line: PRMT6 biochemical assay (3H-SAM Flashplate, histone H4 36-50 K44me1 peptide). The following applies: 1 nM PRMT6, 30 min preincubation, 75 nM peptide. The text has this: S-adenosylmethionine (SAM), S-adenosylhomocysteine (SAH), bicine, Tween20, dimethylsulfoxide (DMSO), bovine skin gelatin (BSG), sodium butyrate and Tris(2-carboxyethyl)phosphine hydrochloride solution (TCEP) were purchased from Sigma-Aldrich at the highest level of purity possible. ^3H-SAM was purchase from American Radiolabeled Chemicals with a specific activity of 80 Ci/mmol. 384-well streptavidin Flashplates were purchased from PerkinElmer.
Chain of full-length human PRMT6 (Flag- and His-tagged) (Q96LA8 with tags, fused parts or gaps): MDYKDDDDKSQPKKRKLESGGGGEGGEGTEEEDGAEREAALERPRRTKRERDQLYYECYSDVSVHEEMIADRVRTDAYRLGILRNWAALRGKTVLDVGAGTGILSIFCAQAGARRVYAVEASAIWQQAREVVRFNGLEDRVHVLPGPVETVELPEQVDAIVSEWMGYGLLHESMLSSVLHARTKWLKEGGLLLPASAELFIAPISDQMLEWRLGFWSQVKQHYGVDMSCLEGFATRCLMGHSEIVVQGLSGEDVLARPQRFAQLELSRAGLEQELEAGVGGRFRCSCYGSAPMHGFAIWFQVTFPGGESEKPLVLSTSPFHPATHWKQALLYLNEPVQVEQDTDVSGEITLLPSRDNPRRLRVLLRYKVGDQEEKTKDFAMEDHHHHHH
Peptide representative of human histone H4 residues 36-50 was synthesized with an N-terminal linker-affinity tag motif and a C-terminal amide cap by 21st Century Biochemicals. The peptide was purified by high-performance liquid chromatography (HPLC) to greater than 95% purity and confirmed by liquid chromatography mass spectrometry (LC-MS). The sequence was Biot-Ahx-[…]-amide and contained a monomethylated lysine at position 44 (SEQ ID NO.:5).
Full-length human PRMT6 (NM_018137.2) transcript clone was amplified from an HEK 293 cDNA library, incorporating a flanking 5′ sequence encoding a FLAG tag ([…]) (SEQ ID NO.:6) fused directly to Ser 2 of PRMT6 and a 3′ sequence encoding a hexa His sequence (HHHHHH) (SEQ ID NO.: 17) fused directly to Asp 375. The amplified gene was subcloned into pFastBacMam (Viva Biotech).
Recombinant baculovirus were generated according to Bac-to-Bac kit instructions (Life Technologies). […] Infections were carried out at 37° C. for 48 hours, harvested by centrifugation, and stored at −80° C. for purification.
Column was washed with 20 mM imidazole in the same buffer and Flag-PRMT6-His was eluted with 150 mM imidazole. Pooled fractions were dialysed against buffer Ni-A and further purified by anti-flag M2 affinity chromatography. Flag-PRMT6-His was eluted with 200 ug/ml FLAG peptide in the same buffer. Pooled fractions were dialysed in 20 mM Tris, 150 mM NaCl, 10% glycerol and 5 mM β-mercaptoethanol, pH 7.8. The purity of recovered protein was 95%.
General Procedure for PRMT6 Enzyme Assays on Peptide Substrates.
The assays were all performed in a buffer consisting of 20 mM Bicine (pH=7.6), 1 mM TCEP, 0.005% BSG, and 0.002% Tween 20, prepared on the day of use. Compounds in 100% DMSO (1 ul) were spotted into a polypropylene 384-well V-bottom plates (Greiner) using a Platemate Plus outfitted with a 384-channel head (Thermo Scientific). DMSO (1 ul) was added to Columns 11, 12, 23, 24, rows A-H for the maximum signal control and 1 ul of SAH, a known product and inhibitor of PRMT6, was added to columns 11, 12, 23, 24, rows I-P for the minimum signal control. A cocktail (40 ul) containing the PRMT6 enzyme was added by Multidrop Combi (Thermo-Fisher). The compounds were allowed to incubate with PRMT6 for 30 min at room temperature, then a cocktail (10 ul) containing SAM and peptide was added to initiate the reaction (final volume=51 ul). The final concentrations of the components were as follows: PRMT6 was 1 nM, ^3H-SAM was 200 nM, non-radiolabeled SAM was 250 nM, peptide was 75 nM, SAH in the minimum signal control wells was 1 mM, and the DMSO concentration was 2%. The assays were stopped by the addition of non-radiolabeled SAM (10 ul) to a final concentration of 400 uM, which dilutes the ^3H-SAM to a level where its incorporation into the peptide substrate is no longer detectable. 50 ul of the reaction in the 384-well polypropylene plate was then transferred to a 384-well Flashplate and the biotinylated peptides were allowed to bind to the streptavidin surface for at least 1 hour before being washed once with 0.1% Tween20 in a Biotek ELx405 plate washer. The plates were then read in a PerkinElmer TopCount plate reader to measure the quantity of ^3H-labeled peptide bound to the Flashplate surface, measured as disintegrations per minute (dpm) or alternatively, referred to as counts per minute (cpm).
Where dpm=disintegrations per minute, cmpd=signal in assay well, and min and max are the respective minimum and maximum signal controls. […]
Molecule `CNCCN(C)Cc1nocc1[C@H]1CC[C@]2(CC1)CC(C)(C)CO2` [compound 118] registered an IC50 of 3530 nM.
`CNCCN(C)Cc1c[nH]nc1[C@H]1CC[C@@H](COCC(F)(F)F)CC1` [compound 23, N1,N2-dimethyl-N1-((3-((1s,4s)-4-((2,2,2-trifluoroethoxy)methyl)cyclohexyl)-1H-pyrazol-4-yl)methyl)ethane-1,2-diamine] came in with an IC50 of 78.5 nM.
Under `CNCCN(C)Cc1c[nH]nc1C1CCC(C)(C)[C@H](COCCCOC)C1` (stereo partly drawn) [compound 30, {2-[({3-[(3R)-3-[(3-methoxypropoxy)methyl]-4,4-dimethylcyclohexyl]-1H-pyrazol-4-yl}methyl)(methyl)amino]ethyl}(methyl)amine] stands 60.3 nM; under `CCOCC1(COCC)CC=C(c2n[nH]cc2CN(C)CCNC)CC1` [compound 60], 41.1 nM; under `CCOCC1(COCC)CCC(c2n[nH]cc2CN(C)CCN)CC1` [compound 123], 16.7 nM.
Under `CNCCN(C)Cc1nnc(C)n1[C@H]1CC[C@]2(CC1)CC(C)(C)CO2` [compound 93] stands greater than 10000 nM.
To `CNCCN(C)Cc1c[nH]nc1C1CCC(C)(C)[C@H](CO)C1` (stereo partly drawn) [compound 32, [(1R)-2,2-dimethyl-5-[4-({methyl[2-(methylamino)ethyl]amino}methyl)-1H-pyrazol-3-yl]cyclohexyl]methanol] belongs 16.3 nM; to `CNCCN(C)Cc1scnc1[C@H]1CC[C@@]2(CC1)CC(C)(C)CO2` [compound 62], 18.3 nM.
On to `CNCCN(C)Cc1nc(C)sc1[C@H]1CC[C@@]2(CC1)CC(C)(C)CO2` [compound 77], for which the IC50 worked out at 180 nM.
As to `CNCCN(C)Cc1c[nH]nc1C1CCC(C)(C)[C@H](OCC(C)C)C1` (stereo partly drawn) [compound 20, ({3-[(3R)-4,4-dimethyl-3-(2-methylpropoxy)cyclohexyl]-1H-pyrazol-4-yl}methyl)(methyl)[2-(methylamino)ethyl]amine], the IC50 came to 74.8 nM.
`CNCCN(C)Cc1c(C)[nH]nc1[C@H]1CC[C@]2(CC1)CC(C)(C)CO2` [compound 58]: the IC50 came to 163 nM.
For the molecule `CNCCN(C)Cc1nccn1[C@H]1CC[C@@]2(CC1)CC(C)(C)CO2` [compound 69], the IC50 turned out to be 8040 nM. This IC50 is about 49-fold higher than that of the molecule before.
Take `CNCCN(C)Cc1nn(C)nc1[C@H]1CC[C@@]2(CC1)CC(C)(C)CO2` [compound 64]: half-maximal inhibition (IC50) was put at 208 nM.
Under `CNCCN(C)Cc1c[nH]nc1[C@H]1CC[C@@]2(CC1)COC(C)(C)C2` [compound 126, N1-((3-((5r,8r)-3,3-dimethyl-2-oxaspiro[4.5]decan-8-yl)-1H-pyrazol-4-yl)methyl)-N1,N2-dimethylethane-1,2-diamine] stands 39.9 nM.
In turn, `CNCCN(C)Cc1n[nH]cc1[C@H]1CC[C@@]2(CC1)CC(C)(C)CO2` [compound 115] registered an IC50 of 41.6 nM.
Consider `CCOCC1(COCC)CCC(c2nn(C)cc2CN(C)CCN)CC1` [compound 124], for which the IC50 stood at 58.1 nM.
Under `CC[C@]12CC[C@](CC)(C[C@@H](c3n[nH]cc3CN(C)CCNC)C1)O2` [compound 38, N1-((3-((1R,3s,5S)-1,5-diethyl-8-oxabicyclo[3.2.1]octan-3-yl)-1H-pyrazol-4-yl)methyl)-N1,N2-dimethylethane-1,2-diamine] stands 132 nM; under `CNCCN(C)Cc1cn(C)nc1C1CCC(C)(C)[C@@H](C(=O)NCC(C)C)C1` (stereo partly drawn) [compound 25], 1610 nM; under `CN(CCN)Cc1nn(C)cc1[C@H]1CC[C@]2(CC1)CC(C)(C)CO2` [compound 102], 1140 nM.
Under `CNCCN(C)Cc1nn(C)cc1[C@H]1CC[C@@]2(CC1)CC(C)(C)CO2` [compound 81] stands 123 nM; under `CNCCN(C)Cc1nc(C)sc1[C@H]1CC[C@]2(CC1)CC(C)(C)CO2` [compound 99], 317 nM; under `CN(CCN)Cc1c[nH]nc1[C@H]1CC[C@]2(CC1)CC(C)(C)CO2` [compound 106], 12.8 nM.
In turn, `CNCCN(C)Cc1nncn1[C@H]1CC[C@@]2(CC1)CC(C)(C)CO2` [compound 68] registered an IC50 greater than 10000 nM.
With `CNCCN(C)Cc1ncsc1[C@H]1CC[C@@]2(CC1)CC(C)(C)CO2` [compound 83], the IC50 stood at 62.7 nM.
In turn, `CNCCN(C)Cc1n[nH]cc1[C@H]1CC[C@]2(CC1)CC(C)(C)CO2` [compound 116] had an IC50 of 134 nM.
To `CNCCN(C)Cc1c[nH]nc1[C@@H]1CC[C@@H](OCCCOC)C2(CCCC2)C1` (racemic) [compound 26, N1-((3-((7R,10R)-10-(3-methoxypropoxy)spiro[4.5]decan-7-yl)-1H-pyrazol-4-yl)methyl)-N1,N2-dimethylethane-1,2-diamine] belongs 107 nM; to `CNCCN(C)Cc1sc(C)nc1[C@H]1CC[C@]2(CC1)CC(C)(C)CO2` [compound 100], 389 nM; to `CNCCN(C)Cc1ccnn1[C@H]1CC[C@]2(CC1)CC(C)(C)CO2` [compound 50, N1-((1-((5r,8r)-3,3-dimethyl-1-oxaspiro[4.5]decan-8-yl)-1H-pyrazol-5-yl)methyl)-N1,N2-dimethylethane-1,2-diamine], 502 nM.
Under `CNCCN(C)Cc1c(Cl)ncn1[C@H]1CC[C@]2(CC1)CC(C)(C)CO2` [compound 97] stands 3510 nM; under `CNCCN(C)Cc1cncn1[C@H]1CC[C@@]2(CC1)CC(C)(C)CO2` [compound 76], 181 nM.
To `CNCCN(C)Cc1nncn1[C@H]1CC[C@]2(CC1)CC(C)(C)CO2` [compound 90] belongs greater than 10000 nM; to `CCC1(CC)C[C@]2(CC[C@H](c3n[nH]cc3CN(C)CCNC)CC2)OC1=O` [compound 33, (5s,8s)-3,3-diethyl-8-(4-((methyl(2-(methylamino)ethyl)amino)methyl)-1H-pyrazol-3-yl)-1-oxaspiro[4.5]decan-2-one], 20.8 nM.
`CNCCN(C)Cc1c[nH]nc1[C@H]1CC[C@@]2(CCCCO2)CC1` [compound 3] showed an IC50 of 27.7 nM.
For `CNCCN(C)Cc1c[nH]nc1C1=CCC(COCC(F)(F)F)CC1` (stereo not drawn) [compound 16, N1,N2-dimethyl-N1-((3-(4-((2,2,2-trifluoroethoxy)methyl)cyclohex-1-en-1-yl)-1H-pyrazol-4-yl)methyl)ethane-1,2-diamine], half-maximal inhibition (IC50) was put at 17 nM.
Under `CNCCN(C)Cc1c[nH]nc1[C@H]1CC[C@]2(CCN(CCC(C)C)C2=O)CC1` [compound 10] stands 38.5 nM; under `CNCCN(C)Cc1nnc(C)n1[C@H]1CC[C@@]2(CC1)CC(C)(C)CO2` [compound 71], greater than 10000 nM.
On to `CNCCN(C)Cc1c[nH]nc1C1=CCC(CF)(CF)CC1` [compound 15, N-((3-(4,4-bis(fluoromethyl)cyclohex-1-en-1-yl)-1H-pyrazol-4-yl)methyl)-N1,N2-dimethylethane-1,2-diamine], for which the IC50 turned out to be 16.7 nM.
Under `CCC1CC(c2n[nH]cc2CN(C)CCNC)CC(C(=O)NCCOC)C1(C)C` (stereo not drawn) [compound 21, 3-ethyl-N-(2-methoxyethyl)-2,2-dimethyl-5-[4-([methyl[2-(methylamino)ethyl]amino]methyl)-1H-pyrazol-3-yl]cyclohexane-1-carboxamide dihydrochloride] stands 789 nM.
To `Cc1[nH]nc([C@H]2CC[C@]3(CC2)CC(C)(C)CO3)c1CN(C)CCN` [compound 52, N1-((3-((5r,8r)-3,3-dimethyl-1-oxaspiro[4.5]decan-8-yl)-5-methyl-1H-pyrazol-4-yl)methyl)-N1-methylethane-1,2-diamine] belongs 202 nM.
